In US7405205B2, “Antitumor antisense sequences directed against R1 and R2 components of ribonucleotide reductase” (Lorus Therapeutics Inc., priority 1996, dated 2008):

tested on: T24 bladder cell carcinoma; experiment: Relative colony forming efficiency after antisense treatment (Table 13); assay type: cell-based, human; settings: 0.2 μM antisense oligodeoxyribonucleotide phosphorothioate; T24 cells; averages of 2-8 determinations

Sequence | Reduced relative colony forming efficiency, expressed as % inhibition, T24
ATTAAAATCTGCGTTGAAGC (DNA, all phosphorothioate, methylation of C not given here) [AS-II-1700-20] | 70.94%
GGCCCAGATCACCCCTAAAT (antisense; DNA, all phosphorothioate, methylation of C not given here) [AS-II-2128-20] | 83.74%
AACCGGAAAAGAAAATGCCT (antisense; DNA, all phosphorothioate, methylation of C not given here) [AS-II-890-20] | 82.07%
TTAGTGGTCAGGAGAATGTA (antisense; DNA, all phosphorothioate, methylation of C not given here) [AS-II-1819-20] | 53.74%
TCGCCTACTCTCTTCTCAAA (DNA, all phosphorothioate, methylation of C not given here) [AS-II-1278-20] | 65.42%
TTTTAACTGGCTGTGCTGGT (DNA, all phosphorothioate, methylation of C not given here) [AS-II-1666-20] | 71.71%
TTCATGGTGTGGCTAGTTGG (DNA, all phosphorothioate, methylation of C not given here) [AS-II-1438-20] | 43.7%
TGGCTGTGCTGGTTAAAGGA (DNA, all phosphorothioate, methylation of C not given here) [AS-II-1659-20] | 74.09%
ACTGCCATTGTCACTGCTAT (DNA, all phosphorothioate, methylation of C not given here) [AS-II-1581-20] | 68.22%
TATCGCCGCCGTGAGTACAA (DNA, all phosphorothioate, methylation of C not given here) [AS-II-1768-20] | 74.56%
GCATCCAAGGTAAAAGAATT (DNA, all phosphorothioate, methylation of C not given here) [AS-II-1335-20] | 59.95%
AAACGGCTTCTCACACATAT (antisense; DNA, all phosphorothioate, methylation of C not given here) [AS-II-2151-20] | 79.83%
CAGAATATCGACGCAAAAGA (antisense; DNA, all phosphorothioate, methylation of C not given here) [AS-II-909-20] | 78.57%

tested on: HCT116 colon cell carcinoma; experiment: as above; assay type: cell-based, human; settings: 0.2 μM antisense oligodeoxyribonucleotide phosphorothioate; HCT116 cells; averages of 2-8 determinations

Sequence | Reduced relative colony forming efficiency, expressed as % inhibition, HCT116
ACTGCCATTGTCACTGCTAT (DNA, all phosphorothioate, methylation of C not given here) [AS-II-1581-20] | 66.85%
GCATCCAAGGTAAAAGAATT (DNA, all phosphorothioate, methylation of C not given here) [AS-II-1335-20] | 67.87%

tested on: A549 lung cell carcinoma; experiment: as above; assay type: cell-based, human; settings: 0.2 μM antisense oligodeoxyribonucleotide phosphorothioate; A549 cells; averages of 2-8 determinations

Sequence | Reduced relative colony forming efficiency, expressed as % inhibition, A549
ATTAAAATCTGCGTTGAAGC (DNA, all phosphorothioate, methylation of C not given here) [AS-II-1700-20] | 77.28%
GGCCCAGATCACCCCTAAAT (antisense; DNA, all phosphorothioate, methylation of C not given here) [AS-II-2128-20] | 87.31%
AACCGGAAAAGAAAATGCCT (antisense; DNA, all phosphorothioate, methylation of C not given here) [AS-II-890-20] | 81.6%
TTTTAACTGGCTGTGCTGGT (DNA, all phosphorothioate, methylation of C not given here) [AS-II-1666-20] | 54.82%
TTCATGGTGTGGCTAGTTGG (DNA, all phosphorothioate, methylation of C not given here) [AS-II-1438-20] | 51.27%
TGGCTGTGCTGGTTAAAGGA (DNA, all phosphorothioate, methylation of C not given here) [AS-II-1659-20] | 54.7%
ACTGCCATTGTCACTGCTAT (DNA, all phosphorothioate, methylation of C not given here) [AS-II-1581-20] | 90.55%
TATCGCCGCCGTGAGTACAA (DNA, all phosphorothioate, methylation of C not given here) [AS-II-1768-20] | 86.8%
GCATCCAAGGTAAAAGAATT (DNA, all phosphorothioate, methylation of C not given here) [AS-II-1335-20] | 78.59%
AAACGGCTTCTCACACATAT (antisense; DNA, all phosphorothioate, methylation of C not given here) [AS-II-2151-20] | 79.19%
CAGAATATCGACGCAAAAGA (antisense; DNA, all phosphorothioate, methylation of C not given here) [AS-II-909-20] | 78.68%

tested on: MDA-MB-231 breast cell adenocarcinoma; experiment: Relative colony forming efficiency after antisense treatment (Table 13, FIG. 11, FIG. 12); assay type: cell-based, human; settings: 0.2 μM antisense oligodeoxyribonucleotide phosphorothioate; MDA-MB-231 cells; averages of 2-8 determinations
Procedure: Colony forming efficiency was determined as previously reported [Huang and Wright, 1994]. The cells were cultured for 24 hours at 37° C. in growth medium with 10% fetal bovine serum. The cells were washed in 5 ml phosphate buffered saline, pH 7.2, once prior to lipofectin+/−oligonucleotide treatment.
The oligonucleotides being tested were added to cell cultures in the presence of 2.5 μg of DOTMA/DOPE (Lipofectin; Life Technologies, Inc.) for four hours. The oligonucleotide was tested at 0.2 μM unless otherwise indicated. Controls were the cultures treated with lipofectin but without the oligonucleotide. After 4 hours the medium containing the oligonucleotide was removed and washed with 5 ml of growth medium. The cells were then cultured in growth medium containing 10% fetal bovine serum for seven to ten days. Surviving cells were visualized by methylene blue staining, and colonies were scored. In some experiments cell aliquotes were removed from the culture and viability was determined using the trypan blue exclusion test [Phillips, 1973]. Results were analyzed as percent of surviving cells compared to control cells.
To test the antisense effects of many of these sequences as phosphorthioate deoxyribonucleotides, they were examined in relative colony forming experiments performed with a series of human tumor cell lines. Many of these antisense constructs, as predicted, are potent inhibitors of human tumor cell proliferation. For results obtained with cancer cells derived from the bladder, breast, lung, colon, pancreas, prostate, liver and cervix, see Table 13. In addition, in vivo studies with AS-II-626-20 were undertaken in C3H/HeN mice as reported in Table 14 and show a significant reduction in metastasis in the antisense treated mice.
Colony forming ability of MDA-MB-231 human breast cancer cells treated with 28 different antisense oligonucleotides was estimated as previously described (Choy et al., 1988). Aliquots of cell suspension were seeded into 60 mm Petri dishes and incubated at 37° C. overnight in α-MEM medium supplemented with 10% fetal bovine serum. Cells were washed in 5 ml of phosphate buffered saline, pH 7.2, prior to 0.2 μM antisense/lipofectin treatments for 4 hours. The media containing the antisense oligonucleotides were removed and cells were washed once and cultured in growth medium for 7 to 10 days. Colonies were stained with methylene blue and scored as described (Choy et al., 1988; Huang and Wright 1994). Percent inhibition was calculated by comparison with the number of colonies present in cultures grown in the absence of antisense oligonucleotides. All experiments were performed in quadruplicate. FIG. 11 is a graph of the percentage inhibition of colony formation by treatment with the various antisense oligonucleotides.
Colony forming ability of various human tumor cell lines was estimated by determining relative colony forming efficiencies (Choy et al., 1988). Cells from various cell lines were washed in 5 ml of phosphate buffered saline, pH 7.2. The cells were treated with 0.2 μM AS-I-618-20 antisense oligonucleotide/lipofectin for 4 hours. The medium containing the antisense oligonucleotide was then removed and the cells were gently washed with 5 ml of growth medium. The cells were cultured in growth medium containing 10% fetal bovine serum for seven to ten days. […] The following human tumor cell lines were evaluated: HepG2 (liver), SK-OV-3 (ovary), U87 (brain), A2058 (melanoma), H460 (lung), MDA-MB-231 (breast) and AsPC-1 (pancreas).

Sequence | Reduced relative colony forming efficiency, expressed as % inhibition, MDA-MB-231
ATTAAAATCTGCGTTGAAGC (DNA, all phosphorothioate, methylation of C not given here) [AS-II-1700-20] | 30.75%
GGCCCAGATCACCCCTAAAT (antisense; DNA, all phosphorothioate, methylation of C not given here) [AS-II-2128-20] | 91.3%
AACCGGAAAAGAAAATGCCT (antisense; DNA, all phosphorothioate, methylation of C not given here) [AS-II-890-20] | 88.2%
TTAGTGGTCAGGAGAATGTA (antisense; DNA, all phosphorothioate, methylation of C not given here) [AS-II-1819-20] | 90.68%
TCGCCTACTCTCTTCTCAAA (DNA, all phosphorothioate, methylation of C not given here) [AS-II-1278-20] | 90.68%
TTTTAACTGGCTGTGCTGGT (DNA, all phosphorothioate, methylation of C not given here) [AS-II-1666-20] | 26.71%
TTCATGGTGTGGCTAGTTGG (DNA, all phosphorothioate, methylation of C not given here) [AS-II-1438-20] | 69.06%
TGGCTGTGCTGGTTAAAGGA (DNA, all phosphorothioate, methylation of C not given here) [AS-II-1659-20] | 42.86%
TATCGCCGCCGTGAGTACAA (DNA, all phosphorothioate, methylation of C not given here) [AS-II-1768-20] | 91.56%
TGGCACCAACTGACTAATAT (antisense; DNA, all phosphorothioate, methylation of C not given here) [AS-II-1976-20] | 89.6%
AAACGGCTTCTCACACATAT (antisense; DNA, all phosphorothioate, methylation of C not given here) [AS-II-2151-20] | 95.14%
CAGAATATCGACGCAAAAGA (antisense; DNA, all phosphorothioate, methylation of C not given here) [AS-II-909-20] | 45.96%

tested on: MIA PaCa-2 pancreatic cell carcinoma; experiment: Relative colony forming efficiency after antisense treatment (Table 13); assay type: cell-based, human; settings: 0.2 μM antisense oligodeoxyribonucleotide phosphorothioate; MIA PaCa-2 cells; averages of 2-8 determinations

Sequence | Reduced relative colony forming efficiency, expressed as % inhibition, MIA PaCa-2
ATTAAAATCTGCGTTGAAGC (DNA, all phosphorothioate, methylation of C not given here) [AS-II-1700-20] | 34.52%
GGCCCAGATCACCCCTAAAT (antisense; DNA, all phosphorothioate, methylation of C not given here) [AS-II-2128-20] | 39.23%
AACCGGAAAAGAAAATGCCT (antisense; DNA, all phosphorothioate, methylation of C not given here) [AS-II-890-20] | 66.02%
TTAGTGGTCAGGAGAATGTA (antisense; DNA, all phosphorothioate, methylation of C not given here) [AS-II-1819-20] | 20.02%
TCGCCTACTCTCTTCTCAAA (DNA, all phosphorothioate, methylation of C not given here) [AS-II-1278-20] | 57.05%
TTTTAACTGGCTGTGCTGGT (DNA, all phosphorothioate, methylation of C not given here) [AS-II-1666-20] | 49.72%
TTCATGGTGTGGCTAGTTGG (DNA, all phosphorothioate, methylation of C not given here) [AS-II-1438-20] | 42.13%
TGGCTGTGCTGGTTAAAGGA (DNA, all phosphorothioate, methylation of C not given here) [AS-II-1659-20] | 42.54%
ACTGCCATTGTCACTGCTAT (DNA, all phosphorothioate, methylation of C not given here) [AS-II-1581-20] | 24.07%
TATCGCCGCCGTGAGTACAA (DNA, all phosphorothioate, methylation of C not given here) [AS-II-1768-20] | 60.36%
GCATCCAAGGTAAAAGAATT (DNA, all phosphorothioate, methylation of C not given here) [AS-II-1335-20] | 78.78%
AAACGGCTTCTCACACATAT (antisense; DNA, all phosphorothioate, methylation of C not given here) [AS-II-2151-20] | 62.15%
CAGAATATCGACGCAAAAGA (antisense; DNA, all phosphorothioate, methylation of C not given here) [AS-II-909-20] | 46.13%

tested on: PC-3 prostrate cell adenocarcinoma; experiment: as above; assay type: cell-based, human; settings: 0.2 μM antisense oligodeoxyribonucleotide phosphorothioate; PC-3 cells; averages of 2-8 determinations

Sequence | Reduced relative colony forming efficiency, expressed as % inhibition, PC-3
ATTAAAATCTGCGTTGAAGC (DNA, all phosphorothioate, methylation of C not given here) [AS-II-1700-20] | 90.63%
GGCCCAGATCACCCCTAAAT (antisense; DNA, all phosphorothioate, methylation of C not given here) [AS-II-2128-20] | 88.89%
AACCGGAAAAGAAAATGCCT (antisense; DNA, all phosphorothioate, methylation of C not given here) [AS-II-890-20] | 87.93%
TTAGTGGTCAGGAGAATGTA (antisense; DNA, all phosphorothioate, methylation of C not given here) [AS-II-1819-20] | 85.46%
TCGCCTACTCTCTTCTCAAA (DNA, all phosphorothioate, methylation of C not given here) [AS-II-1278-20] | 85.31%
TTTTAACTGGCTGTGCTGGT (DNA, all phosphorothioate, methylation of C not given here) [AS-II-1666-20] | 86.06%
TTCATGGTGTGGCTAGTTGG (DNA, all phosphorothioate, methylation of C not given here) [AS-II-1438-20] | 83.96%
TGGCTGTGCTGGTTAAAGGA (DNA, all phosphorothioate, methylation of C not given here) [AS-II-1659-20] | 81.56%
ACTGCCATTGTCACTGCTAT (DNA, all phosphorothioate, methylation of C not given here) [AS-II-1581-20] | 85.83%
TATCGCCGCCGTGAGTACAA (DNA, all phosphorothioate, methylation of C not given here) [AS-II-1768-20] | 86.36%
TGGCACCAACTGACTAATAT (antisense; DNA, all phosphorothioate, methylation of C not given here) [AS-II-1976-20] | 88.16%
GCATCCAAGGTAAAAGAATT (DNA, all phosphorothioate, methylation of C not given here) [AS-II-1335-20] | 90.04%
AAACGGCTTCTCACACATAT (antisense; DNA, all phosphorothioate, methylation of C not given here) [AS-II-2151-20] | 84.86%
CAGAATATCGACGCAAAAGA (antisense; DNA, all phosphorothioate, methylation of C not given here) [AS-II-909-20] | 84.86%

tested on: HepG2 hepatocellular carcinoma; experiment: Relative colony forming efficiency after antisense treatment (Table 13, FIG. 12); assay type: cell-based, human; settings: 0.2 μM antisense oligodeoxyribonucleotide phosphorothioate; HepG2 cells; averages of 2-8 determinations

Sequence | Reduced relative colony forming efficiency, expressed as % inhibition, HepG2
TTAGTGGTCAGGAGAATGTA (antisense; DNA, all phosphorothioate, methylation of C not given here) [AS-II-1819-20] | 83.89%
ACTGCCATTGTCACTGCTAT (DNA, all phosphorothioate, methylation of C not given here) [AS-II-1581-20] | 93.07%
GCATCCAAGGTAAAAGAATT (DNA, all phosphorothioate, methylation of C not given here) [AS-II-1335-20] | 72.98%
